Data taken from ChEMBL document CHEMBL5352398 (Eur J Med Chem, 2022).
Activity calls are given as the source filed them. No cut-off for these calls is given here.

Experiments:
[1] = target: T1, Solute carrier family 22 member 12 (Homo sapiens, UniProt Q96S37); experiment: Inhibition of human URAT1 stably overexpressing in human HEK293 cells assessed as inhibition of 14C-uric acid uptake preincubated for 30 mins followed by substrate addition and measured after 15 mins using 14C-uric acid as substrate by liquid scintillation counting analysis; type: cell-based
T1 sequence (Q96S37 whole entry): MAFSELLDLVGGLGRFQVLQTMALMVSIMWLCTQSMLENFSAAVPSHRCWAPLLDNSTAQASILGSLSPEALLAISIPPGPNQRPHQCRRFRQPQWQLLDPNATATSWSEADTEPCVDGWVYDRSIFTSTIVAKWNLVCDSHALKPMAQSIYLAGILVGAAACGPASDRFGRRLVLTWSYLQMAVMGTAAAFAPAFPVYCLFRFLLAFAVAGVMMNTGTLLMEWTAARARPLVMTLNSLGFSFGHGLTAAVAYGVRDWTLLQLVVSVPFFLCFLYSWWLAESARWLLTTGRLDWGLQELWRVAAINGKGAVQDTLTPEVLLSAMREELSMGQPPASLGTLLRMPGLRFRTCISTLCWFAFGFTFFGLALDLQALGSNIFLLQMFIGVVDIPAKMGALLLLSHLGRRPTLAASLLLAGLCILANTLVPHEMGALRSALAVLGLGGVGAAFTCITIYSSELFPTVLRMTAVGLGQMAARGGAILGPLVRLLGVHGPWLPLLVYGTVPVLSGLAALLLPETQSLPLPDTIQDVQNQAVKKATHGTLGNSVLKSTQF

[2] = Hepatotoxicity in Kunming mouse assessed as increase in AST level in serum at 50 mg/kg,po for 14 days in presence of BSO; type: toxicity, organism-based; conditions: in vivo, 336 h, time 14 day
[3] = Renal toxicity in Kunming mouse assessed as effect on creatinine level at 50 mg/kg,po for 14 days; type: organism-based; conditions: in vivo, 336 h, time 14 day
[4] = target: T2, Solute carrier family 2, facilitated glucose transporter member 9 (Mus musculus, UniProt Q3T9X0); experiment: Inhibition of mouse GLUT9 transfected in human HEK293 cells assessed as inhibition of uric acid induced current by cell patch-clamp assay; type: cell-based
T2 sequence (Q3T9X0 whole entry): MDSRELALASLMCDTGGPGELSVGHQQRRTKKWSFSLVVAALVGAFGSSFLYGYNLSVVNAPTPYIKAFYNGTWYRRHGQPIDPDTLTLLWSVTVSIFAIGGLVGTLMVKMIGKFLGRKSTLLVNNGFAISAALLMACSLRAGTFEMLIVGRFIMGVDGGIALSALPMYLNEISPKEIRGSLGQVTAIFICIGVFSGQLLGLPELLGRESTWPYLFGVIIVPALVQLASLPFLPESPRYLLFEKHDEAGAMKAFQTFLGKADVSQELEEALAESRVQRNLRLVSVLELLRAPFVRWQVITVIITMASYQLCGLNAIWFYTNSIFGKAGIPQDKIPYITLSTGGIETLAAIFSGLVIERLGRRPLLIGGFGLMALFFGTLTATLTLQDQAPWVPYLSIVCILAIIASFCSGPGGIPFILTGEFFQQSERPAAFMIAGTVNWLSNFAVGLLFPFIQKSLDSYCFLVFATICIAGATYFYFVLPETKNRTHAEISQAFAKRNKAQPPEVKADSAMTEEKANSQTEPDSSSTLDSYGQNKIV

[5] = target: T3, Solute carrier family 22 member 6 (Homo sapiens, UniProt Q4U2R8); experiment: Inhibition of OAT1 (unknown origin) transfected in HEK293 cells assessed as inhibition of 6-CFL uptake preincubated for 30 mins followed by 6-CFL addition and measured for 15 mins by fluorescence based microplate reader analysis; type: cell-based
T3 sequence (Q4U2R8 whole entry): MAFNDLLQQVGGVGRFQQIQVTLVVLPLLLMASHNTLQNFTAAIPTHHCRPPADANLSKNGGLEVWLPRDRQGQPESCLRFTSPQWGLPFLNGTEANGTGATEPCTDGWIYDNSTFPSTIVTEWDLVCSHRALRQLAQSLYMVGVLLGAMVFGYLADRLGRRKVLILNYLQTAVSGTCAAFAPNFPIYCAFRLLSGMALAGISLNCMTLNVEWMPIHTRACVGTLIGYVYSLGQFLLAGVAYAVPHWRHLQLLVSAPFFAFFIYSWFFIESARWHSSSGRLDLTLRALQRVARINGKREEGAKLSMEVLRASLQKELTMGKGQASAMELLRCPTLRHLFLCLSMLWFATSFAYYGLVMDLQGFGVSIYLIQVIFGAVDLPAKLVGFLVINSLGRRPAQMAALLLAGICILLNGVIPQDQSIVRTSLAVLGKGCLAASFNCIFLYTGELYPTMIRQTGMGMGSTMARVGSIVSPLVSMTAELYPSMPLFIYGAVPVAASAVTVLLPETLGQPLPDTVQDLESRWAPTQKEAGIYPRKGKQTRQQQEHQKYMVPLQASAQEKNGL

[6] = Tmax in Sprague-Dawley rat at 5 mg/kg, po and measured upto 24 hrs by LC-MS/MS analysis; type: ADME, organism-based; conditions: in vivo
[7] = Tmax in Sprague-Dawley rat at 5 mg/kg, iv and measured upto 24 hrs by LC-MS/MS analysis; type: ADME, organism-based; conditions: in vivo
[8] = Cmax in Sprague-Dawley rat at 5 mg/kg, po and measured upto 24 hrs by LC-MS/MS analysis; type: ADME, organism-based; design: dose 5 mg/kg, time < 24 hrs, route po; conditions: in vivo
[9] = Cmax in Sprague-Dawley rat at 5 mg/kg, iv and measured upto 24 hrs by LC-MS/MS analysis; type: ADME, organism-based; design: time < 24 hrs, dose 5 mg/kg, route iv; conditions: in vivo
[10] = Half life in Sprague-Dawley rat at 5 mg/kg, po and measured upto 24 hrs by LC-MS/MS analysis; type: ADME, organism-based; conditions: in vivo
[11] = Half life in Sprague-Dawley rat at 5 mg/kg, iv and measured upto 24 hrs by LC-MS/MS analysis; type: ADME, organism-based; conditions: in vivo
[12] = AUC(0 to infinity) in Sprague-Dawley rat at 5 mg/kg, po and measured upto 24 hrs by LC-MS/MS analysis; type: ADME, organism-based; design: time < 24 hrs, dose 5 mg/kg, route po; conditions: in vivo
[13] = AUC(0 to infinity) in Sprague-Dawley rat at 5 mg/kg, iv and measured upto 24 hrs by LC-MS/MS analysis; type: ADME, organism-based; design: dose 5 mg/kg, time < 24 hrs, route iv; conditions: in vivo
[14] = MRT (0 to infinity) in Sprague-Dawley rat at 5 mg/kg, po and measured upto 24 hrs by LC-MS/MS analysis; type: ADME, organism-based; conditions: in vivo
[15] = MRT (0 to infinity) in Sprague-Dawley rat at 5 mg/kg, iv and measured upto 24 hrs by LC-MS/MS analysis; type: ADME, organism-based; conditions: in vivo
[16] = Oral bioavailability in Sprague-Dawley rat at 5 mg/kg and measured upto 24 hrs by LCMS analysis; type: ADME, organism-based; conditions: in vivo
[17] = Subacute toxicity in Kunming mouse assessed as animal death at 50 mg/kg,po for 14 days; type: organism-based; conditions: in vivo, 336 h, time 14 day
[18] = Subacute toxicity in Kunming mouse assessed as body weight change at 50 mg/kg,po for 14 days; type: organism-based; conditions: in vivo, 336 h, time 14 day
[19] = Subacute toxicity in Kunming mouse assessed as lethargy at 50 mg/kg,po for 14 days; type: organism-based; conditions: in vivo, 336 h, time 14 day
[20] = Subacute toxicity in Kunming mouse assessed as clonic convulsion at 50 mg/kg,po for 14 days; type: organism-based; conditions: in vivo, 336 h, time 14 day
[21] = Subacute toxicity in Kunming mouse assessed as anorexia at 50 mg/kg,po for 14 days; type: organism-based; conditions: in vivo, 336 h, time 14 day
[22] = Subacute toxicity in Kunming mouse assessed as ruffled fur at 50 mg/kg,po for 14 days; type: organism-based; conditions: in vivo, 336 h, time 14 day
[23] = Hepatotoxicity in Kunming mouse assessed as increase in ALT level in serum at 50 mg/kg,po for 14 days in presence of BSO; type: toxicity, organism-based; conditions: in vivo, 336 h, time 14 day
[24] = Renal toxicity in Kunming mouse assessed as effect on BUN level at 50 mg/kg,po for 14 days; type: organism-based; conditions: in vivo, 336 h, time 14 day
[25] = Toxicity in Kunming mouse assessed as cell arrangements in liver at 50 mg/kg, po administered and measured after 14 days by HE staining; type: organism-based; conditions: in vivo, 336 h, time 14 day
[26] = Toxicity in Kunming mouse assessed as inflammatory infiltration in liver at 50 mg/kg, po administered and measured after 14 days by HE staining; type: organism-based; conditions: in vivo, 336 h, time 14 day
[27] = Toxicity in Kunming mouse assessed as appearance of normal tubular structure in kidney at 50 mg/kg, po administered and measured after 14 days by HE staining; type: organism-based; conditions: in vivo, 336 h, time 14 day
[28] = Toxicity in Kunming mouse assessed as appearance of normal glomerulus cells in kidney at 50 mg/kg, po administered and measured after 14 days by HE staining; type: organism-based; conditions: in vivo, 336 h, time 14 day
HepG2 = experiment: Cytotoxicity against human HepG2 cells assessed as reduction in cell viability upto 400 uM incubated for 24 hrs by MTT assay; type: toxicity, cell-based; conditions: hepg2, 24 h
[29] = Toxicity in Kunming mouse assessed as inflammatory infiltration in kidney at 50 mg/kg, po administered and measured after 14 days by HE staining; type: organism-based; conditions: in vivo, 336 h, time 14 day
Mus musculus = experiment: Anti-hyperuricemic activity against potassium oxonate induced hyperuricemia in Kunming mouse model assessed as decrease in serum urate level at 2 mg/kg, po and measured after 3 hrs; type: functional, organism-based

## Cc1cc(C(=O)n2ccc3cccnc32)ccc1O
[1]
  IC50: 5830 nM

## COc1cc(C(=O)n2ccc3cccnc32)ccc1O
[1]
  IC50: 2690 nM

## O=C(c1ccc(O)c([N+](=O)[O-])c1)n1ccc2cccnc21
[1]
  IC50: 2950 nM

## O=C(c1ccc(O)c(F)c1)n1ccc2cccnc21
[1]
  IC50: 2080 nM

## O=C(c1cc(Cl)c(O)c(Cl)c1)n1cc(Br)c2cccnc21
[1]
  IC50: 1550 nM

## Cc1ccc2c(cnn2C(=O)c2cc(Cl)c(O)c(Cl)c2)c1
[1]
  IC50: 1810 nM

## O=C(c1cc(Cl)c(O)c(Cl)c1)n1ccc2c(Cl)ncnc21
[1]
  IC50: 1980 nM

## O=C(c1cc(Br)c(O)c(Br)c1)n1ccc2cccnc21
[1]
  IC50: 2300 nM

## O=C(c1ccc(O)cc1)n1ccc2cccnc21
[1]
  IC50: 1720 nM

## COc1cc(C(=O)n2ccc3cccnc32)cc(OC)c1O
[1]
  IC50: 4850 nM

## O=C(c1cc(Cl)c(O)c(Cl)c1)n1ccc2ccncc21
[1]
  IC50: 3220 nM

## O=C(c1cc(Cl)c(O)c(Cl)c1)n1ncc2ccccc21
[1]
  IC50: 2260 nM

## CC(C)(Sc1ccncc1-c1ccc(C#N)c2ccccc12)C(=O)O
[1]
  IC50: 130 nM

## O=C(c1cc(Cl)c(O)c(Cl)c1)n1ccc2cnccc21
[1]
  IC50: 2810 nM

## O=C(c1cc(Cl)c(O)c(Cl)c1)N1CCc2cc(Br)ccc21
[1]
  IC50: 2360 nM

## O=C(c1ccc(O)c(Br)c1)n1ccc2cccnc21
[1]
  IC50: 3800 nM

## CC1Cc2ccccc2N1C(=O)c1cc(Cl)c(O)c(Cl)c1 (stereo unspecified)
[1]
  IC50: 1600 nM

## O=C(c1cc(Cl)c(O)c(Cl)c1)n1ccc2cccnc21
[2]
  Activity: Non-Toxic
[3]
  Activity: Non-Toxic
[1]
  IC50: 800 nM
[4]
  IC50: > 20000 nM
[5]
  IC50: 10200 nM
[6]
  Tmax: 0.29 h
[7]
  Tmax: 0.52 h
[8]
  Cmax: 6830 ng/mL
[9]
  Cmax: 18400 ng/mL
[10]
  half-life: 4.61 h
[11]
  half-life: 6.8 h
[12]
  AUC(0-inf): 35300 ng·h/mL
[13]
  AUC(0-inf): 63800 ng·h/mL
[14]
  MRT inf: 7.27 h
[15]
  MRT inf: 9.85 h
[16]
  bioavailability: 55.3%
[17]
  Activity: Non-Toxic
[18]
  Activity: Non-Toxic
[19]
  Activity: Non-Toxic
[20]
  Activity: Non-Toxic
[21]
  Activity: Non-Toxic
[22]
  Activity: Non-Toxic
[23]
  Activity: Non-Toxic
[24]
  Activity: Non-Toxic
[25]
  Activity: Non-Toxic
[26]
  Activity: Non-Toxic
[27]
  Activity: Non-Toxic
[28]
  Activity: Non-Toxic
HepG2
  Activity: Toxic
[29]
  Activity: Non-Toxic

## Cc1cc(C(=O)n2ccc3cccnc32)cc(C)c1O
[1]
  IC50: 2700 nM

## O=C(O)CSc1nnc(Br)n1-c1ccc(C2CC2)c2ccccc12
Mus musculus
  Activity: Active

## O=C(c1cc(Cl)c(O)c(Cl)c1)n1ccc2ncccc21
[1]
  IC50: 1560 nM

## O=C(c1ccc(O)c(Cl)c1)n1ccc2cccnc21
[1]
  IC50: 1580 nM
